Assay results: patent US10654918B2, “Inflammatory disease diagnosis and methods of treatment using down-regulators of lipopolysaccharide-responsive beige-like anchor” (University of South Florida, priority 2013, dated 2020)

Tests used:
[1] = system: splenocytes and bone marrow cells; assay: Ex vivo culture of splenocytes and bone marrow cells with LPS; type: cell-based, mouse; conditions: ex vivo cell culture, 24 h LPS stimulation (1 μg/ml)
Method: (§1) FIG. 34(A)-(B) are graphs showing LPS regulates BAFFR in vivo and in vitro. C57BL/6J mice of 2-month age were injected intraperitoneally with LPS (5 μg/g body weight) or PBS (control). For in vitro LPS stimulation, cells from mouse spleen or bone marrow were cultured with or without LPS (1 μg/ml) for 24 hr. Cells were stained with fluorophores-conjugated BAFFR and TACI antibodies and DAPI for dead/live discrimination and analyzed with cytometry. (A) Spleocytes without LPS-P3, (B) bone marrow cells without LPS-P3. Negative gating was based on B220 negative cells, which are negative for BAFFR and TACI. Numbers other than percentage are arbitrary MFI units. All experiments were done in triplicate for in the vitro experiment and data shown is representative of two separate experiments.
(§2) To investigate whether CVID genes also respond to LPS, mice were injected intraperitoneally with LPS. Twenty-four hours later the spleen and bone marrow cells were harvested and subjected to cytometry assay.

[2] = system: LRBA; assay: Plasma LRBA levels (ELISA) in mice stimulated with LPS; type: in vivo
Method: (A) Mice stimulated with LPS (1 μg/g body weight) for 6 hours. (B) OVA induced asthma mouse model.
(§3) (C) Asthma patients with an exacerbation or controlled symptoms; (D) Human mononuclear leukocytes stimulated with LPS (1 μg/ml). LPS was derived from Escherichia coli 0111:B4 (Sigma, St. Louis, Mo.). LRBA levels were determined by LRBA ELISA Kit using 100 μl of plasma or conditioned media in each well, following the manufacturer's protocol.
(§4) A) Mice stimulated with LPS (5 μg/g body weight) for 6 hours. (B) OVA induced asthma mouse model; (C) Asthma patients with an exacerbation or controlled symptoms; (D) Human mononuclear leukocytes stimulated with LPS (1 μg/ml). LRBA levels were determined by LRBA ELISA Kit using 100 μl of plasma or conditioned media in each well. C57BL/6J mice were injected intraperitoneally with 500 μl of 12 mg/kg (body weight) of LRBA antibody or control normal rabbit 1 gG suspended in saline three times. LPS at 7.5 mg/kg in 0.2 ml PBS i.p was followed. About 100 μl of blood was collected by submandibular venipuncture after 2 hours of LPS injection. Plasma samples were obtained by centrifugation at 3000 rpm for 15 min and used for cytokine assay. The TNFα and IL-6 concentrations were detected using the mouse CBA Th1/Th2/Th17 cytokine kit. The Phosflow Starter Kit contains Cytofix Fixation Buffer, Phosflow Perm Buffer III and Stain Buffer BSA.

[3] = system: CVID receptors, B220 and TLR4; assay: LPS regulates CVID receptors, B220 and TLR4 in vivo (cytometry of spleen and bone marrow cells); design: species or system C57BL/6J mice; conditions: for B220 Median Intensity fold / B220 Percentage fold / BAFFR Median Intensity fold / BAFFR Percentage fold / CD19 Median Intensity fold / CD19 Percentage fold / CD21 Median Intensity fold / CD21 Percentage fold / TACI Median Intensity fold / TACI Percentage fold / TLR4 Median Intensity fold / TLR4 Percentage fold: PBS vs LPS
Method: as §1, §2

[4] = system: Human mononuclear leukocytes; assay: LRBA levels in culture supernatants of mononuclear leukocytes stimulated with LPS; type: cell-based; conditions: LPS 1 μg/ml
Method: as §3, §4

[5] = system: RAW264.7 macrophage cells; assay: Time-lapse video of LRBA-associated vesicle movement after LPS; type: cell-based, mouse
Method: FIGS. 14(A) and (B) are graphs showing LPS stimulates LRBA-positive vesicles movements. RAW264.7 macrophage cells stably transfected with pBWEGFP were cultured in a glass bottom dish and put into the culture chamber. LPS was added at final concentration of 100 ng/ml. The time-lapse video of four living cells was taken at one picture per second using the Leica TCS SP2 laser scanning inverted confocal microscope with a mini cell culture chamber at 37° C. and 5% CO2. (A) Average speed of LRBA-associated vesicles; (B) Average maximum speed of LRBA-associated vesicles; The two tails and unpaired T test p values: ***p<0.001; *p<0.0138 (A); ***p<0.0005; *p<0.0117 (B).
Time lapse video was taken for living macrophage cells. RAW264.7 macrophage cells stably transfected with pBWEGFP were cultured in a glass bottom dish and put into the mini cell culture chamber at 37° C. and 5% CO2 in a Leica TCS SP2 laser scanning inverted confocal microscope. LPS was added at final concentration of 100 ng/ml. The time-lapse video of four living cells was taken at one picture per second using the Avg. timelapse interval: 1000.05 ms (1.0 Hz) (+/−8.9 ms); Initial SAC Position: 1700; Objective: 100× (magnification: 100.00×); Mag. changer: EMCCD (magnification: 1.00×); 8 inning: 1×1; Channel 1: c488em at 50 ms. Gain: 3 Intensification: 700 ND: 60 [Independent]. […]

[6] = Bone Marrow, LPS 5 μg/g i.p., 24 h

Lipopolysaccharide [LPS]
TACI on splenocytes and bone marrow cells [1]: significantly upregulated
LRBA secreted into plasma upon LPS stimulation ([2]; high levels, upper value): up to 6.7 μg/L
LRBA levels in plasma ([2]; mice stimulated with LPS for 6 hours): significantly increased
B220 Median Intensity [3, 6]: 2423 ± 396.6 arbitrary fluorescence intensity units
B220 Percentage [3, 6]: 15.5 ± 5.1%
BAFFR Median Intensity [3, 6]: 693.3 ± 84.1 arbitrary fluorescence intensity units
BAFFR Percentage [3, 6]: 43.7 ± 4.9%
CD19 Median Intensity [3, 6]: 1951105 arbitrary fluorescence intensity units
CD19 Percentage [3, 6]: 17.9 ± 5.5%
CD21 Median Intensity [3, 6]: 378 ± 53.8 arbitrary fluorescence intensity units
CD21 Percentage [3, 6]: 24.5 ± 1.23%
TACI Percentage [3, 6]: 1.4 ± 0.35%
TLR4 Median Intensity [3, 6]: 592 ± 28.8 arbitrary fluorescence intensity units
TLR4 Percentage [3, 6]: 50.9 ± 3.3%
B220 Median Intensity fold ([3]; Bone Marrow): 0.69↑
B220 Percentage fold ([3]; Bone Marrow): 1.02
BAFFR Median Intensity fold ([3]; Bone Marrow): 1.58↓
BAFFR Percentage fold ([3]; Bone Marrow): 0.81
CD19 Median Intensity fold ([3]; Bone Marrow): 0.94
CD19 Percentage fold ([3]; Bone Marrow): 0.83
CD21 Median Intensity fold ([3]; Bone Marrow): 2.02↓
CD21 Percentage fold ([3]; Bone Marrow): 1.1
TACI Median Intensity fold ([3]; Bone Marrow): 1.03
TACI Percentage fold ([3]; Bone Marrow): 2.16
TLR4 Median Intensity fold ([3]; Bone Marrow): 0.97
TLR4 Percentage fold ([3]; Bone Marrow): 1.13↓
B220 Median Intensity ([3]; Spleen, LPS 5 μg/g i.p., 24 h): 4031.3 ± 153.2 arbitrary fluorescence intensity units
B220 Percentage ([3]; Spleen, LPS 5 μg/g i.p., 24 h): 58.7 ± 4.5%
BAFFR Median Intensity ([3]; Spleen, LPS 5 μg/g i.p., 24 h): 842.7 ± 73.1 arbitrary fluorescence intensity units
BAFFR Percentage ([3]; Spleen, LPS 5 μg/g i.p., 24 h): 94.7 ± 0.92%
CD19 Median Intensity ([3]; Spleen, LPS 5 μg/g i.p., 24 h): 1792237 arbitrary fluorescence intensity units
CD19 Percentage ([3]; Spleen, LPS 5 μg/g i.p., 24 h): 59 ± 4.1%
CD21 Median Intensity ([3]; Spleen, LPS 5 μg/g i.p., 24 h): 580.71 ± 56.5 arbitrary fluorescence intensity units
CD21 Percentage ([3]; Spleen, LPS 5 μg/g i.p., 24 h): 80.9 ± 9.7%
TACI Median Intensity ([3]; Spleen, LPS 5 μg/g i.p., 24 h): 560.7 ± 60.1 arbitrary fluorescence intensity units
TACI Percentage ([3]; Spleen, LPS 5 μg/g i.p., 24 h): 7.9 ± 2.70%
TLR4 Median Intensity ([3]; Spleen, LPS 5 μg/g i.p., 24 h): 502.7 ± 3.1 arbitrary fluorescence intensity units
TLR4 Percentage ([3]; Spleen, LPS 5 μg/g i.p., 24 h): 55.7 ± 4.0%
B220 Median Intensity fold ([3]; Spleen): 1
B220 Percentage fold ([3]; Spleen): 0.8↑
BAFFR Median Intensity fold ([3]; Spleen): 1.19↓
BAFFR Percentage fold ([3]; Spleen): 0.98
CD19 Median Intensity fold ([3]; Spleen): 1.07
CD19 Percentage fold ([3]; Spleen): 0.8↑
CD21 Median Intensity fold ([3]; Spleen): 1.45↓
CD21 Percentage fold ([3]; Spleen): 1.1
TACI Median Intensity fold ([3]; Spleen): 1.1
TACI Percentage fold ([3]; Spleen): 0.35↑
TLR4 Median Intensity fold ([3]; Spleen): 1.02
TLR4 Percentage fold ([3]; Spleen): 1.16↓
LRBA levels in the culture supernatants [4]: significantly increased
average speed of vesicles ([5]; 3 min after adding LPS (100 ng/ml) into the media): doubles
average speed of vesicles ([5]; after 5 and 23 min of LPS (100 ng/ml)): slows down to original levels
